What was measured:
Test in all cases: SIK1, SIK2, and SIK3 inhibition test
[1] = target: Serine/threonine-protein kinase SIK1 (Homo sapiens, UniProt P57059)
Description: (§1) The inhibitory activity of the compound for SIK1, SIK2, and SIK3 enzymes was assayed by measuring the amount of ADP, an enzyme reaction product, with ADP-Glo™ Max Assay (Promega). Enzymes, specifically, GST-tagged SIK1 (Carna Biosciences, Inc.), GST-tagged SIK2 (Carna Biosciences, Inc.), and GST-tagged SIK3 (SignalChem) were prepared in a reaction buffer (15 mM tris-hydrochloric acid buffer (pH 7.5), 0.001% Triton X-100, 0.01% BSA) so that the final concentration would be 20 nM, 3 nM, and 100 nM. Enzyme solutions were thus formed. In a reaction buffer, AMARA Peptide (SignalChem) as a substrate with a final concentration of 200 μM (SIK1, SIK2) or 100 μM (SIK3), ATP (Promega) with a final concentration of 1 mM, and magnesium chloride with a final concentration of 5 mM were prepared. Substrate solutions were thus formed. The enzyme solution, the substrate solution, and a DMSO solution of a concentration of the test compound were mixed together and reacted at room temperature for 2 hours. After the reaction, ADP-Glo™ Reagent (Promega) was added, and the reaction was performed at room temperature for 30 minutes. Subsequently, ADP-Glo™ Max Detection Reagent (Promega) was added, and the reaction was performed at room temperature for 30 minutes. The emission by the luciferase reaction was measured with PHERAstar FSX (BMG LABTECH).

[2] = target: Serine/threonine-protein kinase SIK3 (Homo sapiens, UniProt Q9Y2K2)
Description: as §1

[3] = target: Serine/threonine-protein kinase SIK2 (Homo sapiens, UniProt Q9H0K1)
Description: as §1

Sequence of Serine/threonine-protein kinase SIK3 (Q9Y2K2 whole entry): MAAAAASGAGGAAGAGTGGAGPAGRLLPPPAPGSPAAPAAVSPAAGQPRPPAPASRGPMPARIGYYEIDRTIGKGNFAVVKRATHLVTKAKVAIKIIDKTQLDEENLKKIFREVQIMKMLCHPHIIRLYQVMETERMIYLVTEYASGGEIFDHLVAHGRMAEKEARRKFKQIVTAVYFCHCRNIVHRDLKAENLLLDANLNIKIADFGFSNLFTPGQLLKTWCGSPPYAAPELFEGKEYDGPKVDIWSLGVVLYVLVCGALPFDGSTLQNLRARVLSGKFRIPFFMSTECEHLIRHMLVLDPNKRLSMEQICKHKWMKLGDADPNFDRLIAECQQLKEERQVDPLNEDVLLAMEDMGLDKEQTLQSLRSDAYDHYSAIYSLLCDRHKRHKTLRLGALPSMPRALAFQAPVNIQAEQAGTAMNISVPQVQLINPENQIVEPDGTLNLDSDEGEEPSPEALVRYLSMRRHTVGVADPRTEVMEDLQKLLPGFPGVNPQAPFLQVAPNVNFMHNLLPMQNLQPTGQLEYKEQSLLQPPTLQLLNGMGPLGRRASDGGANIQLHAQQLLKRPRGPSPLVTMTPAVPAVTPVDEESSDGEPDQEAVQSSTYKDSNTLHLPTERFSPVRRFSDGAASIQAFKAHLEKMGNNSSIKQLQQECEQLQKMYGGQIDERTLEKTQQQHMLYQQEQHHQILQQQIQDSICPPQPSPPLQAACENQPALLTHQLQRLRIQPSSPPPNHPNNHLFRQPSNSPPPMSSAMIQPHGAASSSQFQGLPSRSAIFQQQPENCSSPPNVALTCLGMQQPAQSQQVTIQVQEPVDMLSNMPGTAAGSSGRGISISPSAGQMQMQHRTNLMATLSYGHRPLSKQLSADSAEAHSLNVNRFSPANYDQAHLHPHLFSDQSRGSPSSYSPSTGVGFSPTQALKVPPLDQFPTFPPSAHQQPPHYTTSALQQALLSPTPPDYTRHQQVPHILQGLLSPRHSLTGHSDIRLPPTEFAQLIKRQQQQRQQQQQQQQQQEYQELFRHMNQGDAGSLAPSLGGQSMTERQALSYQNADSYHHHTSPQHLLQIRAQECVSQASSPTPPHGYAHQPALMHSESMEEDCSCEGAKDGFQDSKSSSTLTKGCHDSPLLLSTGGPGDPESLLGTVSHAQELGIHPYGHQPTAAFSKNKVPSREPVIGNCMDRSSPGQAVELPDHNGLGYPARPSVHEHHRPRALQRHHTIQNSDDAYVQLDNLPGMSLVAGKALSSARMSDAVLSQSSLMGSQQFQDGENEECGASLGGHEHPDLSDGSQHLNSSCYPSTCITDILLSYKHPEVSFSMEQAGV
Sequence of Serine/threonine-protein kinase SIK1 (P57059 whole entry): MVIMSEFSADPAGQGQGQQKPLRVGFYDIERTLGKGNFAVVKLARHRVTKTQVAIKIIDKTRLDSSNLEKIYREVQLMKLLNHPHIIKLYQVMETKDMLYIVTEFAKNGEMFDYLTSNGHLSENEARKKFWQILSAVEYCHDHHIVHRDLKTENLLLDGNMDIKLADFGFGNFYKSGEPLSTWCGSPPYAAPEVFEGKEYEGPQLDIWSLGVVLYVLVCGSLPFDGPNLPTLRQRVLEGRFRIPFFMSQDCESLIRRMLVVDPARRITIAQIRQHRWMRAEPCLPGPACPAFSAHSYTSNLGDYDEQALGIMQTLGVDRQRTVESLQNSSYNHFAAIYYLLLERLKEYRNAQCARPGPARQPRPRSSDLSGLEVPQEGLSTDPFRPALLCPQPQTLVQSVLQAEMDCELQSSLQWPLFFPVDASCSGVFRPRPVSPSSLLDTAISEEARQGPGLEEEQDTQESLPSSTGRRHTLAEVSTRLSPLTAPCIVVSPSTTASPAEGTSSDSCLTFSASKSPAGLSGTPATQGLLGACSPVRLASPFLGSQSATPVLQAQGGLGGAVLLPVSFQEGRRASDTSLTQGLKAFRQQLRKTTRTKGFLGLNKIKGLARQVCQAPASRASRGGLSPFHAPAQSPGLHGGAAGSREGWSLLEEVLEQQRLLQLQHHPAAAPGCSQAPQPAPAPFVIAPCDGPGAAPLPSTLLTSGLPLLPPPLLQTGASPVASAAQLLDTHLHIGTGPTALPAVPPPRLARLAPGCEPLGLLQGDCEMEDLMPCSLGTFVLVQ
Sequence of Serine/threonine-protein kinase SIK2 (Q9H0K1 whole entry): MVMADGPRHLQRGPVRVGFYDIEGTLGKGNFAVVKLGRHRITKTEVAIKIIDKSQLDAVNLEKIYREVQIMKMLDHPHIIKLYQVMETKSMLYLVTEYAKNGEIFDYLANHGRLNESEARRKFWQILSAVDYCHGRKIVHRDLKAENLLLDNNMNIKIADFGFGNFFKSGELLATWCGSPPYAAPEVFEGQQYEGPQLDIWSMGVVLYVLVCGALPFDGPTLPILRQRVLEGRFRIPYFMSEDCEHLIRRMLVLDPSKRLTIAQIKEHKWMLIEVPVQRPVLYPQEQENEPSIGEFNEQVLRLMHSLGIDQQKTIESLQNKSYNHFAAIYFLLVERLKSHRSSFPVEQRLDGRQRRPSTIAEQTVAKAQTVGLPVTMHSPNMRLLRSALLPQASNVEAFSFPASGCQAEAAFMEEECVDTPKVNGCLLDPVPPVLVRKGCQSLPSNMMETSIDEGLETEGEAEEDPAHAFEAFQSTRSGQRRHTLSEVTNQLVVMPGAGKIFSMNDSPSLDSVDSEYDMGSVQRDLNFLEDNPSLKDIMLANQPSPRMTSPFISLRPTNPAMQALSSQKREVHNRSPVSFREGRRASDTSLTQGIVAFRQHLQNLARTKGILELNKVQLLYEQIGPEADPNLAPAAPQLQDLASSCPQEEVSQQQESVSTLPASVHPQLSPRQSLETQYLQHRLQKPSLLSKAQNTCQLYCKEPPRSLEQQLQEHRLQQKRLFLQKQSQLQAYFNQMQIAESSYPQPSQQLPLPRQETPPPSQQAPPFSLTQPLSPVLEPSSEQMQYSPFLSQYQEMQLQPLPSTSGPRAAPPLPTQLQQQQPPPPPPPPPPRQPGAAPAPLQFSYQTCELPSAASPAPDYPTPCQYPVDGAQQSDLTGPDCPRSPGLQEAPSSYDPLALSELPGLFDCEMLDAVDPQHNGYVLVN

| Compound | IC50 [1] | IC50 [2] | IC50 [3] |
| --- | --- | --- | --- |
| COc1cc(-c2c3c(OC(F)F)cc(-c4cnn(C)c4)cc3nn2C)cc(OC(F)F)c1C(=O)N1CC(O)(C(F)(F)F)C1 [US20260062387, Example 62] | 7.9 nM | 10.4 nM | 3.9 nM |
| COc1cc(-c2c3c(OC(F)F)cc(-c4cn(C)nn4)cc3nn2C)cc(OC(F)F)c1C(=O)N1CC(O)(C(F)F)C1 [US20260062387, Example 64] |  | 15.8 nM | 9 nM |

More lines, now with the values ahead:

| IC50 [1] | IC50 [2] | IC50 [3] | Compound |
| --- | --- | --- | --- |
| 9.6 nM | 3 nM | 5.6 nM | COc1cc(-c2c3c(C(F)F)cc(-c4cnn(CCC(=O)N(C)C)c4)cc3nn2C)cc(OC(F)F)c1C(=O)N1CC(O)(C(F)(F)F)C1 [US20260062387, Example 65] |
| 3 nM | 6.8 nM | 6.1 nM | COc1cc(-c2c3c(C(F)F)cc(-c4cnn(C[C@@H](C)O)c4)cc3nn2C)cc(OC(F)F)c1C(=O)N1CC(O)(C(F)(F)F)C1 [US20260062387, Example 71] |
| 3.9 nM |  | 5.6 nM | COc1cc(-c2c3c(C(F)F)cc(-c4cnn(C[C@H](C)O)c4)cc3nn2C)cc(OC(F)F)c1C(=O)N1CC(O)(C(F)(F)F)C1 [US20260062387, Example 72] |

From BindingDB's records for patent US20260062387 (Mitsubishi Tanabe Pharma, 2026)
